US11319324B2, “Pyrazolo-pyrrolo-pyrimidine-dione derivatives as P2X3 inhibitors” (Bayer Aktiengesellschaft, priority 2017, dated 2022)

Experiments:
human P2X2/3 receptors = target: T1, human P2X2/3 receptors (Homo sapiens, UniProt P56373+Q9UBL9); experiment: Intracellular calcium measurement, antagonist activity at human P2X2/3 receptors (hP2X23 1321N1), Fluo8; format: cell-based; details: column 4); 1321N1 cells, human P2X2/3, Fluo8, agonist ATP at EC50; read-out: 4) hP2X2/3 IC50 [nM] (1321N1)
T1 construct: expressed in transfected cells; host or cells: human astrocytoma 1321N1 (1312N1 [sic])
T1 sequence (P56373 1-397): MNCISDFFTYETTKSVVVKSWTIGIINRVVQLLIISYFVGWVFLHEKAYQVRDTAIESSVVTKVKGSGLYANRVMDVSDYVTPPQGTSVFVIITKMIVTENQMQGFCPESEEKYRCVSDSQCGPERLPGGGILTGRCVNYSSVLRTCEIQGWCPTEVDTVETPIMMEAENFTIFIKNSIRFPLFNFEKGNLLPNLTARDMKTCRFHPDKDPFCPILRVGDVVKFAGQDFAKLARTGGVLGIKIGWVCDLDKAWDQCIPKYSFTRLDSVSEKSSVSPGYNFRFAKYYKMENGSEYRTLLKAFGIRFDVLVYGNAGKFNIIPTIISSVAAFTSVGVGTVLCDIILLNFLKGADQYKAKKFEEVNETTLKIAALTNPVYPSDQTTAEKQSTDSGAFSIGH
T1 sequence (Q9UBL9 1-471): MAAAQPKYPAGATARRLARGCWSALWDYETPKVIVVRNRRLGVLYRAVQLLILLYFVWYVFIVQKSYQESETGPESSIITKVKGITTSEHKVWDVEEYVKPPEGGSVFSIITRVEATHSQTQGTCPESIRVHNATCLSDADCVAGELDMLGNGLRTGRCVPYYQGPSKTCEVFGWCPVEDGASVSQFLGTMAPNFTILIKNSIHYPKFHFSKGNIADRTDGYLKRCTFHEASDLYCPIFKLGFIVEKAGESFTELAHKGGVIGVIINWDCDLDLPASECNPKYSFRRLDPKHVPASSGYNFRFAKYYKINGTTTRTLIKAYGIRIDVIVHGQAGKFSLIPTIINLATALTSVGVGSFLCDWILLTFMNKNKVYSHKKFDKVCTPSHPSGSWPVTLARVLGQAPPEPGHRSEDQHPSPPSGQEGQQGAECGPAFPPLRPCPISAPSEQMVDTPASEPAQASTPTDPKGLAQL
Experimental: 3) And 4) Intracellular Calcium Measurement to Compare Antagonist Activity at Human P2X3 Receptors (hP2X3 1321N1) and at Human P2X2/3 Receptors (hP2X23 1321N1)
The comparison of antagonistic activity at the P2X3 versus the P2X2/3 receptor of the compounds of the invention were performed by use of recombinant cell lines. These cell lines derived originally from the human astrocytoma cell line […] (Macintyre E H, Pontén J, Vatter A E. Acta Pathol Microbiol Scand A. 1972; 80(2):267-83). The cell lines are stably transfected with the human P2X3 receptor forming homotrimeric P2X3 receptors or are co-transfected with P2X2 and P2X3 forming heterotrimeric P2X2/3 receptors. Stimulation of the receptors with the agonist ATP leads to a conformational change of the receptors and influx of extracellular calcium ions through the open ion channel. The cytoplasmatic calcium transient is detected via the calcium sensitive dye Fluo8. The strength of Fluo8 fluorescence signal corresponds to the level of receptor activation. An inhibitor would decrease the signal depending on its potency and concentration. Fluorescence was measured by use of a suitable fluorescence reader.
On the day before the assay, the cells were plated in culture medium (DMEM high glucose, 10% FCS, 1% MEM non-essential amino acids, 4 mM Glutamax) in 384-well poly-D-lysine coated microtiter plates and kept in a cell incubator (96% humidity, 5% v/v CO2, 37° C.). On the day of the assay medium was exchanged by Fluo8 containing buffer and incubated for 60 minutes. Test compounds were added at various concentrations and plates were incubated for 10 minutes. In the fluorescence reader a 3 seconds baseline measurement was performed and the agonist ATP was applied at EC50 concentration of the respective receptor during constant fluorescence measurement for 120 seconds.

human P2X3 receptor = target: T2, human P2X3 receptor (Homo sapiens, UniProt P56373); experiment: Intracellular calcium measurement to assess antagonist activity at human P2X3 receptors (hP2X3 CHO), photina luminescence; format: cell-based; set-up: expressed in transfected cells; host or cells: Chinese hamster ovary (CHO) cells; details: column 2), CHO cells, agonist α,β-methylene-ATP at EC50
T2 sequence (P56373 1-397): T1 sequence (P56373 1-397)
Experimental: 2) Intracellular Calcium Measurement to Assess Antagonist Activity at Human P2X3 Receptors (hP2X3 CHO)
The determination of antagonistic activity at the P2X3 receptor of the compounds of the invention was performed by use of a recombinant cell line. This cell line derives originally from the Chinese hamster ovary (CHO) cell line (Tjio J. H.; Puck T. T., 1958, J. Exp. Med. 108: 259-271). The cell line is stably transfected with the human P2X3 receptor and a calcium-sensitive photoprotein, mitochondrial photina, which, after reconstitution with the cofactor coelenterazine, emits light in dependence of calcium binding [Bovolenta S, Foti M, Lohmer S, Corazza S., J Biomol Screen. 2007 August; 12(5):694-704]. The strength of the photina luminescence signal corresponds to the level of receptor activation upon agonist binding. An inhibitor would decrease the signal depending on its potency and concentration. Bioluminescence was detected using a suitable luminometer [Milligan G, Marshall F, Rees S, Trends in Pharmacological Sciences 17,235-237 (1996)].
On the day before the assay, the cells were plated out in culture medium (DMEM/F12 (PAN, P04-41451), 10% FCS) in 384-well microtiter plates and kept in a cell incubator (96% humidity, 5% v/v CO2, […]). On the day of the assay medium was replaced by 2 mM Ca-tyrode buffer containing 5 μg/ml coelenterazine. Plates were incubated for 3 hours at 37° C. (96% humidity, 5% v/v CO2). […] The resulting light signal was measured immediately in the luminometer.

Row | IC50 (human P2X2/3 receptors) [nM] | IC50 (human P2X3 receptor) [nM] | Structure (SMILES)
1 | 1350 | 24 | Cc1ccc(-c2cc3n(CC(=O)Nc4ccc(F)cn4)c4c(c(=O)n3n2)CN([C@H]2CCOC2)C4=O)nc1 [Example 161, N-(5-fluoropyridin-2-yl)-2-{2-(5-methylpyridin-2-yl)-5,8-dioxo-6-[(3S)-oxolan-3-yl]-5,6,7,8-tetrahydro-4H-pyrazolo[1,5-a]pyrrolo[3,4-d]pyrimidin-4-yl}acetamide]
2 | 5000 | 17 | CC(C)N1Cc2c(n(CC(=O)Nc3ccc(F)cn3)c3cc(C(=O)Nc4c(F)cccc4F)nn3c2=O)C1=O [Example 205]
3 | 3870 | 37 | CC(C)N1Cc2c(n(CC(=O)Nc3ccc(F)cn3)c3cc(C(=O)Nc4ccccn4)nn3c2=O)C1=O [Example 201]
4 | 6150 | 27 | CCc1cc2n(CC(=O)Nc3ccc(F)cn3)c3c(c(=O)n2n1)CN(Cc1ccc(C)nc1)C3=O [Example 117]
5 | 1160 | 51 | CCc1cc2n(CC(=O)Nc3ccc(F)cn3)c3c(c(=O)n2n1)CN(C(C)COCc1ccccc1)C3=O (racemic) [Example 121, 2-{6-[(±)-1-(benzyloxy)propan-2-yl]-2-ethyl-5,8-dioxo-5,6,7,8-tetrahydro-4H-pyrazolo[1,5-a]pyrrolo[3,4-d]pyrimidin-4-yl}-N-(5-fluoropyridin-2-yl)acetamide]
6 | 11500 | 15 | COC[C@H](C)N1Cc2c(n(CC(=O)Nc3ccc(F)cn3)c3cc(C(=O)N(C)Cc4cccnc4)nn3c2=O)C1=O [Example 218]
7 | 1350 | 15 | O=C(Cn1c2c(c(=O)n3nc(C(=O)Nc4ccccc4F)cc13)CN(Cc1ccccn1)C2=O)Nc1ccc(F)cn1 [Example 222]
8 | – | 56 | CCc1cc2n(CC(=O)Nc3ccc(F)cn3)c3c(c(=O)n2n1)CN(C(C)(C)CO)C3=O [Example 136, 2-[2-ethyl-6-(1-hydroxy-2-methylpropan-2-yl)-5,8-dioxo-5,6,7,8-tetrahydro-4H-pyrazolo[1,5-a]pyrrolo[3,4-d]pyrimidin-4-yl]-N-(5-fluoropyridin-2-yl)acetamide]
9 | – | 22 | CC(C)N1Cc2c(n(CC(=O)Nc3ccc(F)cn3)c3cc(Cc4ccccn4)nn3c2=O)C1=O [Example 133]
10 | – | 1650 | CCc1cc2n(CC(=O)Nc3ccc(F)cn3)c3c(c(=O)n2n1)CN(C1CCN(C)CC1)C3=O [Example 87]
11 | – | 26 | CC(C)N1Cc2c(n(CC(=O)Nc3ccc(F)cn3)c3cc(C(=O)Nc4ccon4)nn3c2=O)C1=O [Example 211]
12 | – | 36 | Cc1ccccc1NC(=O)c1cc2n(CC(=O)Nc3ccc(F)cn3)c3c(c(=O)n2n1)CN(C(C)C)C3=O [Example 204]
13 | – | 240 | Cc1cc2n(CC(=O)Nc3ccc(F)cn3)c3c(c(=O)n2n1)CN(CC1CCO1)C3=O (centres unmarked) [Example 125]
14 | – | 127 | CC(C)N1Cc2c(n(CC(=O)Nc3ccc(F)cn3)c3cc(C4CN(C)C4)nn3c2=O)C1=O [Example 262]
15 | – | 398 | Cc1cccnc1-c1cc2n(CC(=O)Nc3ccc(F)cn3)c3c(c(=O)n2n1)CN(C(C)C)C3=O [Example 163]
16 | – | 131 | CCc1cc2n(CC(=O)Nc3ccc(F)cn3)c3c(c(=O)n2n1)CN(C1CCCOC1)C3=O (centres unmarked) [Example 118]

Row | IC50 (human P2X2/3 receptors) [nM] | IC50 (human P2X3 receptor) [nM] | Structure (SMILES)
17 | – | 565 | CCc1cc2n(CC(=O)Nc3ccc(F)cn3)c3c(c(=O)n2n1)CN(C1CN(S(C)(=O)=O)C1)C3=O [Example 273]
18 | – | 155 | CCc1cc2n(CC(=O)Nc3ccc(F)cn3)c3c(c(=O)n2n1)CN(C(C)CO)C3=O (racemic) [Example 137, 2-{2-ethyl-6-[(±)-1-hydroxypropan-2-yl]-5,8-dioxo-5,6,7,8-tetrahydro-4H-pyrazolo[1,5-a]pyrrolo[3,4-d]pyrimidin-4-yl}-N-(5-fluoropyridin-2-yl)acetamide]
19 | – | 21 | CCOC(=O)c1cc2n(CC(=O)Nc3ccc(F)cn3)c3c(c(=O)n2n1)CN(CCN1CCOCC1)C3=O [Example 123]
20 | – | 585 | CCc1cc2n(CC(=O)Nc3ccc(F)cn3)c3c(c(=O)n2n1)CN(C1CN(C(=O)OC(C)(C)C)C1)C3=O [Example 116]
21 | – | 180 | O=C(Cn1c2c(c(=O)n3nc(C(=O)Nc4ccccc4F)cc13)CN(C1CCOCC1)C2=O)Nc1ccc(F)cn1 [Example 219]
22 | – | 1500 | CCc1cc2n(CC(=O)Nc3ccc(F)cn3)c3c(c(=O)n2n1)CN(C1CN(C(C)=O)C1)C3=O [Example 269]
23 | – | 585 | CCc1cc2n(CC(=O)Nc3ccc(F)cn3)c3c(c(=O)n2n1)CN(CC1CNC1)C3=O [Example 242]
24 | – | 42 | CC(C)N1Cc2c(n(CC(=O)Nc3ccc(F)cn3)c3cc([C@H]4CCOC4)nn3c2=O)C1=O (single isomer, unassigned) [Example 281, 2-{5,8-dioxo-2-[oxolan-3-yl]-6-(propan-2-yl)-5,6,7,8-tetrahydro-4H-pyrazolo[1,5-a]pyrrolo[3,4-d]pyrimidin-4-yl}-N-(5-fluoropyridin-2-yl)acetamide]
25 | – | 145 | CC(C)N1Cc2c(n(CC(=O)Nc3ccc(F)cn3)c3cc(C(=O)NCCCO)nn3c2=O)C1=O [Example 224]
26 | – | 14 | O=C(Cn1c2c(c(=O)n3nc(-c4ccncc4)cc13)CN(Cc1cccnc1)C2=O)Nc1ccc(F)cn1 [Example 131]
27 | – | 43 | CCc1cc2n(CC(=O)Nc3ccc(F)cn3)c3c(c(=O)n2n1)CN(C)C3=O [Example 127]
28 | – | 115 | CC(C)N1Cc2c(n(CC(=O)Nc3ccc(F)cn3)c3cc(C4CN(C(=O)OC(C)(C)C)C4)nn3c2=O)C1=O [Example 230, tert-butyl 3-[4-{2-[(5-fluoropyridin-2-yl)amino]-2-oxoethyl}-5,8-dioxo-6-(propan-2-yl)-5,6,7,8-tetrahydro-4H-pyrazolo[1,5-a]pyrrolo[3,4-d]pyrimidin-2-yl]azetidine-1-carboxylate]
29 | – | 36 | CC(C)N1Cc2c(n(CC(=O)Nc3ccc(F)cn3)c3cc(C4=COCC4)nn3c2=O)C1=O [Example 144, 2-[2-(4,5-dihydrofuran-3-yl)-5,8-dioxo-6-(propan-2-yl)-5,6,7,8-tetrahydro-4H-pyrazolo[1,5-a]pyrrolo[3,4-d]pyrimidin-4-yl]-N-(5-fluoropyridin-2-yl)acetamide]
30 | – | 143 | O=C(Cn1c2c(c(=O)n3nc(C(F)(F)F)cc13)CN(CCN1CCOCC1)C2=O)Nc1ccc(F)cn1 [Example 103]
31 | – | 45 | O=C(Cn1c2c(c(=O)n3nc(C(=O)Nc4ccccc4F)cc13)CN(CCN1CCOCC1)C2=O)Nc1ccc(F)cn1 [Example 220]
